# Results taken from ChEMBL document CHEMBL1131945, “Nonpeptide small-molecular inhibitors of dipeptidyl peptidase IV: N-phenylphthalimide analogs” (Bioorg Med Chem Lett, 1999).
# pIC50: −log10 of the molar value. “And” between values parts separate entries of the source, which are not always exact repeats. Equal values may be shown once.
# Columns and labels:
# Dipeptidyl peptidase 4 = Dipeptidyl peptidase 4 (Homo sapiens, UniProt P27487); assay: Inhibitory activity against Dipeptidylpeptidase IV (DPP IV) in human acute lymphoblastic leukemia MOLT-4 cell line; type: cell-based
# Sequence of Dipeptidyl peptidase 4 (P27487 whole entry): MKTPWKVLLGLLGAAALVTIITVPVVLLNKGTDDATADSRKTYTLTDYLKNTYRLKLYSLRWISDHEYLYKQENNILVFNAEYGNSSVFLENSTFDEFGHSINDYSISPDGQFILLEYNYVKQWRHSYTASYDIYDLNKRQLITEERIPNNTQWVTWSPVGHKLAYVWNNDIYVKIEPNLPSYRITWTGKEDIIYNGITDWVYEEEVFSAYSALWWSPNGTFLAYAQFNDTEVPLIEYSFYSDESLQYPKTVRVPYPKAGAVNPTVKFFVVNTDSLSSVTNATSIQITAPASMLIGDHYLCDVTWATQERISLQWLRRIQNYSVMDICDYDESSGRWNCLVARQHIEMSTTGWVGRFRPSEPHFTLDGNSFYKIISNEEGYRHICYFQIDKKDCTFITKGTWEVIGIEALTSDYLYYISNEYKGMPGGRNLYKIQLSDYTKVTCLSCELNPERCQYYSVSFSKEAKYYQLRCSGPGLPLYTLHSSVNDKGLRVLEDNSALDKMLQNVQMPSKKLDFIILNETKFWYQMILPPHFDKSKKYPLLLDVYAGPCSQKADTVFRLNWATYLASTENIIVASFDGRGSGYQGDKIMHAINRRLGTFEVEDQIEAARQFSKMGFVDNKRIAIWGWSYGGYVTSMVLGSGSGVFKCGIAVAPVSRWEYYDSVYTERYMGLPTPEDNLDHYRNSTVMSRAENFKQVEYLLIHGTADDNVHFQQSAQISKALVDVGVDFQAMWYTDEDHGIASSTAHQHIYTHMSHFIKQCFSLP
# Aminopeptidase N = Aminopeptidase N (Homo sapiens, UniProt P15144); assay: Inhibitory activity against aminopeptidase N (APN) in human acute lymphoblastic leukemia MOLT-4 cell line; type: cell-based
# Sequence of Aminopeptidase N (P15144 whole entry): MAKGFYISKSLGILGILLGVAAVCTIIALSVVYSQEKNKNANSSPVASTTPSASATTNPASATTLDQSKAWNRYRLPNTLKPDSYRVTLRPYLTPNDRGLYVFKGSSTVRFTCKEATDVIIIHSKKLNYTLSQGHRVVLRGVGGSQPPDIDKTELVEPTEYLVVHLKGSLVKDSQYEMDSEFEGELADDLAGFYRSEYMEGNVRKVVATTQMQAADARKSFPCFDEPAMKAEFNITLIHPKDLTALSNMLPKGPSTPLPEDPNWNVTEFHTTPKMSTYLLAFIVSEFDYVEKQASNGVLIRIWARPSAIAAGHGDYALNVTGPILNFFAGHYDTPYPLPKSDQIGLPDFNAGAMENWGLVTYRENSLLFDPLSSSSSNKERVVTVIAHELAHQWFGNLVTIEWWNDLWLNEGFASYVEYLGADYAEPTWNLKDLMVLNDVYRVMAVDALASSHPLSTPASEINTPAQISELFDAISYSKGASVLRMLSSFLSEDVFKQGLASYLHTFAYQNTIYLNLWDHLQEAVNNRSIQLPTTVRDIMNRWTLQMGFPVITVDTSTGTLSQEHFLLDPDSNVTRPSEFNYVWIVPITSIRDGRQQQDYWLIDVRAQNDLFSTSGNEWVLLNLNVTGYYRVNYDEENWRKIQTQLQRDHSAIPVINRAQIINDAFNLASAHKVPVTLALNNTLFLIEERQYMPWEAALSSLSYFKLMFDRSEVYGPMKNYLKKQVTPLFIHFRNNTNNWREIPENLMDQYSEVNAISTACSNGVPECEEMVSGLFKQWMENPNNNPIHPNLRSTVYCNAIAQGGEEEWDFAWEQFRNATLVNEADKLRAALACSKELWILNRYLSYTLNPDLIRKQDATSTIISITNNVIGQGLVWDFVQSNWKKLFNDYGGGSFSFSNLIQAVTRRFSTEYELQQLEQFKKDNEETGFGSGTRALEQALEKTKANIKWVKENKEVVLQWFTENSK
# [1] = Cytotoxicity in human embryonic lung flbroblast Wl-38 cells using WST-1 viability assay
SMILES,pIC50 (Dipeptidyl peptidase 4),pIC50 (Aminopeptidase N),IC50 [1]
Cc1cccc(C)c1N1C(=O)c2ccc([N+](=O)[O-])cc2C1=O,< 3.47,< 3.47,> 100 µg/mL
CC(C)c1cccc(C(C)C)c1N1C(=O)c2c(F)c(F)c(F)c(F)c2C1=S,4.52,,> 100 µg/mL and > 253 µM
Cc1cccc(C)c1N1C(=O)c2cccc([N+](=O)[O-])c2C1=O,< 3.47,< 3.47,> 100 µg/mL
CC(C)c1cccc(C(C)C)c1N1C(=S)c2c(F)c(F)c(F)c(F)c2C1=S,4.44,,1.4 µg/mL and 3.4 µM
CCc1cccc(CC)c1N1C(=O)c2cccc(O)c2C1=O,4.36,,> 100 µg/mL and > 339 µM
CSc1ccccc1N1C(=O)c2cccc([N+](=O)[O-])c2C1=O,< 3.50,< 3.50,> 100 µg/mL
Cc1cccc(C)c1N1C(=O)c2cccc(O)c2C1=O,< 3.43,,> 100 µg/mL
Cc1cccc(C)c1N1C(=O)c2ccc(N)cc2C1=O,,,> 100 µg/mL and > 376 µM
CC(C)c1cccc(C(C)C)c1N1C(=O)c2ccc(O)cc2C1=O,,,12.7 µg/mL and 39.3 µM
Cc1cccc(C)c1N1C(=O)c2cccc(N)c2C1=O,4.22,3.96,> 100 µg/mL and > 376 µM
CC(C)c1cccc(C(C)C)c1N1C(=O)c2ccccc2C1=S,4.24,< 3.51 and 3.51,60.5 µg/mL and 187 µM
CSc1ccccc1N1C(=O)c2cccc(O)c2C1=O,3.65,3.87,> 100 µg/mL and > 350 µM
Cc1cccc(C)c1N1C(=O)c2ccc(O)cc2C1=O,,,> 100 µg/mL and > 374 µM
CC(C)c1cccc(C(C)C)c1N1C(=O)c2cccc(O)c2C1=O,,,> 100 µg/mL and > 309 µM
CCc1cccc(CC)c1N1C(=O)c2ccc(O)cc2C1=O,,,52 µg/mL and 176 µM
CC(C)c1cccc(C(C)C)c1N1C(=O)c2ccccc2C1=O,< 3.49,,> 100 µg/mL
Cc1cccc(C)c1N1C(=O)c2ccccc2C1=O,< 3.40,,> 100 µg/mL
CC(C)c1cccc(C(C)C)c1N1C(=O)c2ccc(N)cc2C1=O,,,> 100 µg/mL and > 310 µM
CC(C)c1cccc(C(C)C)c1N1C(=O)c2cccc([N+](=O)[O-])c2C1=O,< 3.55,,93.1 µg/mL and 264 µM
CC(C)c1cccc(C(C)C)c1N1C(=O)c2ccc([N+](=O)[O-])cc2C1=O,< 3.55,,42.7 µg/mL and 121 µM
